The text below walks through data of patent US12240811B2, “N-heterocyclic five-membered ring-containing capsid protein assembly inhibitor, pharmaceutical composition and uses thereof” (CHIA TAI TIANQING PHARMACEUTICAL GROUP CO., LTD., priority 2019, dated 2025).

One data set relates to HBV DNA in HepAD38 cells. The data set can be described thus: In vitro cell HBV DNA inhibitory activity in HepAD38 cells. In kind it is cell-based. As to conditions: Hepatitis B virus, 144 h, 6 days treatment, intracellular capsid HBV DNA by qPCR, read-out: EC50, anti-HBV activity in HepAD38 cells. The method, then: A bottle of HepG2.2.15 (Wuhan Institute of Virology) or HepAD38 cells in good exponential growth state was taken, washed once by adding 5 mL PBS, and then thereto was added 3 mL trypsin. After digesting at room temperature for 5 min, 2 mL trypsin was discarded, and then the sample was placed in a cell culture incubator and digested for 10 min. The cells were taken out and observed under a microscope (whether the cells were individually round and there was no adhesion between the cells). 10 mL complete medium was added to terminate the digestion. After pipetting into a single cell suspension, 10 μL of the cell suspension was taken out for cell counting with a cell counter, and then diluted with a complete medium and adjusted to a cell density of 1*10^5 cells/mL. […]
Compounds dissolved in DMSO were subjected to two-fold gradient dilution (10 concentrations in total) with complete medium. […] After lysing at room temperature for 10 min, DNA was extracted, and HBV DNA in the intracellular viral capsid was measured by real-time fluorescence quantitative PCR. The inhibition rate was calculated based on the Ct value, and the EC50 value was calculated by the four-parameter method.

Data set [1] can be described thus: In vitro cytotoxicity (CCK-8). In kind it is cell-based. To be noted: human, HepG2.2.15 cells. The method, then: A bottle of HepG2.2.15 cells (Wuhan Institute of Virology) in good exponential growth state was taken, washed once by adding 5 mL PBS, and then thereto was added 2 mL trypsin. The sample was digested in a cell culture incubator, and taken out from time to time and observed under a microscope. When the cells just fell off, 1 mL trypsin was discarded. The residual liquid was placed in a cell culture incubator at 37° C. and digested for 8-15 min. The cells were taken out and observed under a microscope (whether the cells were individually round and there was no adhesion between the cells). 5 mL MEM medium was added for cell resuspension. The cells were then subjected to cell counting with a cell counter, diluted with a complete medium, and adjusted to a cell density of 2*10^5 cells/mL. Then the cells were seeded at 100 μL/well in a 96-well plate with a multi-channel pipette (the 96-well plate was coated with 50 μg/mL Collagen I solution in advance), and cultured in a constant temperature CO2 incubator for 24 h. The cells were treated by drug administration, and fresh medium containing the compound was used to replace the spent medium every 3 days. […] After 1 to 2 hours, the absorbance was detected with microplate reader at 450 nm, and the inhibition rate and the CC50 were calculated.

The target of the next data set is CYP 3A4 (Homo sapiens (Human), UniProt P08684). Put plainly: CYP450 enzyme inhibition study, CYP 3A4. The format is in vitro ADME. As to conditions: human liver microsomes; read-out: Subtypes IC50 3A4. The method, then: (§1) 500 μL of a final incubation system contains 50 μL of human liver microsomes (protein concentration: 0.2 mg/mL, Corning), 1 μL of mixed CYP450 specific substrates (CYP1A2, CYP 2B6, CYP 2C9, CYP2C19, CYP 2D6, and CYP 3A4), 398 μL PBS buffer (pH7.4), 1 μL specific positive inhibitor (positive control group) or the test compound (formulated with acetonitrile), and 50 μL NADPH+MgCl2. Duplicate incubation systems of 0.5 mL each were formulated for each CYP450 subtype. A total volume of 450 μL of a uniformly mixed solution of the substrate and the enzyme was formulated in each tube, and the solution and NADPH were pre-incubated at 37° C. for 5 minutes, respectively. Then 50 μL of the mixed solution of NADPH+MgCl2 was added for reaction. 50 μL of the reaction solution was taken out at 30 minutes, and the reaction was terminated with 300 μL of ice acetonitrile containing an internal standard. In addition, two control groups of 500 μL each without NADPH were prepared in parallel as a negative control group.
(§2) Sample pre-treatment: To 50 μL of the incubated sample was added 300 μL of ice acetonitrile containing an internal standard, and then precipitated. After vortexing for 5 minutes, the sample was centrifugated (12000 rpm, 4° C.) for 10 minutes. 75 μL of the supernatant was pipetted, and 75 μL of ultrapure water was added thereto for dilution and mixed uniformly. […]

A further data set has as its target CYP 2D6 (Homo sapiens (Human), UniProt P10635). Put plainly: CYP450 enzyme inhibition study, CYP 2D6. The format is in vitro ADME. The method, then: as §1, §2
Another data set addresses CYP 2C9 (Homo sapiens (Human), UniProt P11712). The data set can be described thus: CYP450 enzyme inhibition study, CYP 2C9. In kind it is in vitro ADME. As to conditions: human liver microsomes; read-out: Subtypes IC50 2C9. The method, then:
as §1, §2

A further data set addresses CYP1A2 (Homo sapiens (Human), UniProt P05177). Put plainly: CYP450 enzyme inhibition study, CYP1A2. In kind it is in vitro ADME. The method, then: as §1, §2
A short description of data set [2]: Plasma protein binding assay, human plasma. The format is in vitro ADME. The method, then: (§3) Formulation of plasma sample: 495 μL of blank plasmas of the corresponding species (mouse, rat, dog, monkey, and human) were drawn respectively, and thereto was added 5 μL of the corresponding test compound solution or positive control to give plasma sample solutions having a plasma drug concentration of the compound of 1 μM, and 10 μM, respectively (formulated with acetonitrile).
(§4) The pre-treated dialysis membrane was placed in a high-throughput equilibrium dialysis device, and 100 μL of the plasma sample solution and PBS buffer solution were drawn and added respectively to both sides of the dialysis membrane (sample side and buffer side) (n=3). After the equilibration device was sealed with a film, it was incubated at 37° C. overnight (100 rpm). After dialysis equilibrium was reached, 50 μL samples were drawn from the sample side and the buffer side, respectively, and the reaction was terminated by adding ice acetonitrile containing an internal standard.
(§5) Sample pre-treatment: To 50 μL of the plasma-side sample was added 450 μL of ice acetonitrile containing an internal standard, and then precipitated. After vortexing for 5 minutes, the sample was centrifugated (12000 rpm, 4° C.) for 10 minutes. 75 μL of the supernatant was pipetted, and 75 μL of ultrapure water was added thereto for dilution and mixed uniformly. 1 μL of the resulting solution was injected for analysis. […]

The nature of data set [3]: Plasma protein binding assay, dog plasma. In kind it is in vitro ADME. The method, then:
as §3, §4, §5

CYP1A2, sequence (P05177 whole entry): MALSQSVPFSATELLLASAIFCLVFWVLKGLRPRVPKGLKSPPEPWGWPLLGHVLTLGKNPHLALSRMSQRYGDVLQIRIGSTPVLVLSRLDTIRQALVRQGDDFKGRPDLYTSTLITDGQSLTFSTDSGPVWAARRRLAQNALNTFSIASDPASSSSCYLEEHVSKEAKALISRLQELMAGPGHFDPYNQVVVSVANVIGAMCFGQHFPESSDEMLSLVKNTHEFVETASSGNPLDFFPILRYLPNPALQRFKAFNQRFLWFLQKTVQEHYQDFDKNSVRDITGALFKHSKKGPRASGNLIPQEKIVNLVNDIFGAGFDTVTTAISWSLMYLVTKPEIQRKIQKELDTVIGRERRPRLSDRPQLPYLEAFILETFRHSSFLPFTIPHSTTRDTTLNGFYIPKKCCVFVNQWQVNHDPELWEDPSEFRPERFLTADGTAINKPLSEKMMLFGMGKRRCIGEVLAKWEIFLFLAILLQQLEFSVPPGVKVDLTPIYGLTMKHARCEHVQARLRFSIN
CYP 3A4, sequence (P08684 whole entry): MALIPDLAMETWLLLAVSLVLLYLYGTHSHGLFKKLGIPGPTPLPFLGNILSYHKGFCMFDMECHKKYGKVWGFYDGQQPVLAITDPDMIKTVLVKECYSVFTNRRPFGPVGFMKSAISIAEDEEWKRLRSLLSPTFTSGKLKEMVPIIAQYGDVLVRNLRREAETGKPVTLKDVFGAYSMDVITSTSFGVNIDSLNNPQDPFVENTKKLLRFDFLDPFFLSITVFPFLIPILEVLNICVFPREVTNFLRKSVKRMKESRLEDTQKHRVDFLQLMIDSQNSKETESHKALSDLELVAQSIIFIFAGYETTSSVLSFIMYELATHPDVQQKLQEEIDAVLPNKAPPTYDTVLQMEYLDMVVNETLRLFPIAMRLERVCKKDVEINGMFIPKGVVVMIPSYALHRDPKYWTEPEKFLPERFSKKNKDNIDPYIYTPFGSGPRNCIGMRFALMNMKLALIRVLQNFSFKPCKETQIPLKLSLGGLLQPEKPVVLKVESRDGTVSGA
CYP 2D6, sequence (P10635 whole entry): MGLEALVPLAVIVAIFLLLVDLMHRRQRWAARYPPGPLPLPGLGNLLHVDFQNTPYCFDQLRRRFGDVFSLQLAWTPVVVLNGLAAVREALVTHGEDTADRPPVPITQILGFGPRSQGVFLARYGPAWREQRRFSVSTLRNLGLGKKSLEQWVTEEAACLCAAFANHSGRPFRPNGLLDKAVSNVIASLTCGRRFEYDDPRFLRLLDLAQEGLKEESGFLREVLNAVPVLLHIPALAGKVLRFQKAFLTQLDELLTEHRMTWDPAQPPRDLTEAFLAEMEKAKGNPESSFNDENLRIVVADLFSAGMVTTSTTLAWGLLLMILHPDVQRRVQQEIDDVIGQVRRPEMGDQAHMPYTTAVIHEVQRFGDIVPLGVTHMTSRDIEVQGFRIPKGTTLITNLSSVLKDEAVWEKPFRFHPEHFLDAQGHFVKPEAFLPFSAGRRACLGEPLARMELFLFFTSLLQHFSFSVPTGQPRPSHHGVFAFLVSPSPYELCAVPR
CYP 2C9, sequence (P11712 whole entry): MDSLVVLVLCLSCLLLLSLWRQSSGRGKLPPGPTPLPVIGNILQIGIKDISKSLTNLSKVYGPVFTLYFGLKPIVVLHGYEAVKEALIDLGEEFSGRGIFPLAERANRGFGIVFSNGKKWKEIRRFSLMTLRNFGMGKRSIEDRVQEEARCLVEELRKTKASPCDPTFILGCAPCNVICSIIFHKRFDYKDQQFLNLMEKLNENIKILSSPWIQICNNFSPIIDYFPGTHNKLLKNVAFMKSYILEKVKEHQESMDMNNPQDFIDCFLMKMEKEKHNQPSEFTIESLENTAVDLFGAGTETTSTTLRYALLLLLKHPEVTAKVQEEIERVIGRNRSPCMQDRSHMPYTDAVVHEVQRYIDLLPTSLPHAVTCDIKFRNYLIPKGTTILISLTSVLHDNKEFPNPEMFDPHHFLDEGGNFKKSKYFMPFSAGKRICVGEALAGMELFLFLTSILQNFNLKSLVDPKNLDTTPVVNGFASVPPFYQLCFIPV

Consider `Cc1[nH]c(C(=O)C(=O)N[C@@H](C)C(F)(F)F)c(C)c1C(=O)Nc1ccc(F)c(C#N)c1` [Example 1, (S)—N-(3-cyano-4-fluorophenyl)-2,4-dimethyl-5-(2-oxo-2-((1,1,1-trifluoroprop-2-yl)amino)acetyl)-1H-pyrrole-3-carboxamide], for which the EC50 in the data set with HBV DNA in HepAD38 cells was determined as 0.024 µM. Also, the CC50 at 6 days in data set [1] is > 100 µM. Besides, the IC50 at CYP 3A4 is > 200 µM; at CYP 2D6, 54 µM; on CYP 2C9, > 200 µM; against CYP1A2, 49 µM. Further, the “Binding rate (%) Human” value in data set [2] (1 μM) and in data set [2] (10 μM) was 97.3% in each case. Further, the “Binding rate (%) Dog” value in data set [3] (1 μM) is listed as 94.0%; in data set [3] (10 μM), 93.9%.
